According to patent US8252748B2, “Peptide derived from neurotensin receptor 3 and use thereof in the treatment of psychiatric diseases” (Centre National de la Recherche Scientifique—CNRS, priority 2007, dated 2012):
No end group written: not given here.

Legend:
TREK-1 channel = target: T1, TREK-1 channel (Homo sapiens, UniProt O95069); experiment: Whole-cell patch clamp of TREK-1 channel activity in transfected COS-7 cells; type: cell-based
T1 construct: expressed in transfected cells; host or cells: COS-7 cells (ATCC CRL-1651), DEAE-dextran transfection
T1 sequence (O95069 1-426): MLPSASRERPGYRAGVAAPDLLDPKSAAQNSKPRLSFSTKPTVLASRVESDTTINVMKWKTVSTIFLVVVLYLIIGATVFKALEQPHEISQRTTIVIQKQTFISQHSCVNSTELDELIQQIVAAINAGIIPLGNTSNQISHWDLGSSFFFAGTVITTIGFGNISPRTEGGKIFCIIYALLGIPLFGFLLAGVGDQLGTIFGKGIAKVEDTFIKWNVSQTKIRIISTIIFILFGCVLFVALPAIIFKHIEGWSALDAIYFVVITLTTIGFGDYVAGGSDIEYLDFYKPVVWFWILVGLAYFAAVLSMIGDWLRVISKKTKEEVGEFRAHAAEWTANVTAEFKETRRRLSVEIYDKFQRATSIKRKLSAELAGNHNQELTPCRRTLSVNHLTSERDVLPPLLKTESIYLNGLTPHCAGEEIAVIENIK
Procedure: All the experiments for measuring the effect of the propeptide were conducted on COS-7 cells (cell line derived from kidney fibroblasts of African green monkey Cercopithecus aethiops). These cells are sown at a density of 20 000 cells/dish with diameter of 35 mm, 24 hours before being transfected by the DEAE-dextran method with 1 μg of pIRES-EGFP-TREK-1 plasmid. Measurements of current were taken 48 to 72 hours after transfection.
Culture of the COS-7 cells. The COS-7 cells (ATCC reference: CRL-1651) are cultivated in DMEM medium (Gibco)/10% fetal calf serum (FCS, ICN), at 37° C. in the presence of 5% CO2.
Transfection using DEAE dextran. On day 1, the COS-7 cells are sown at 20 000 cells per 35-mm diameter dish containing 2 ml of culture medium. On day 2, the medium is removed and the cells are covered with 200 μl of PBS (Gibco) containing 1 μg of pIRES-EGFP-TREK-1 plasmid and 100 μg of DEAE-dextran (Sigma) then placed at 37° C./5% CO2. After incubation for 30 minutes, 2 ml of medium DMEM/10% NuSerum/80 μM chloroquin is added. After 3 hours, the medium is replaced with 2 ml of DMEM/10% FCS and the cells are incubated for 48 to 72 hours before being measured by electrophysiological methods.
Electrophysiological measurements: all the measurements are taken at room temperature, i.e. at 21-22° C. The cells that were transfected by the plasmid are detected from the fluorescence emitted by the EGFP after excitation at 480 nm.
The whole-cell patch clamp technique was used for measuring the activity of the TREK-1 channels. The equipment used is the RK 400 patch-clamp amplifier (Axon Instruments, U.S.A.). The patch pipettes with resistance of 1.3 to 8 MΩ are prepared from capillaries of borosilicate glass and are filled with a solution of 155 mM KCl, 3 mM MgCl2, 5 mM EGTA, 10 mM HEPES/KOH pH 7.2.
The cell culture medium is replaced with a solution of 150 mM NaCl, 5 mM KCl, 3 mM MgCl2, 1 mM CaCl2, 10 HEPES/NaOH pH 7.4 containing 10 mM tetraethyl ammonium chloride, 3 mM of 4-aminopyridin. The cells are perfused continuously with this solution. The rest potential of the membrane of the measured cell is fixed at −80 mV.
The variations in voltage are obtained either with a continuous ramp (from −100 to +50 mV) or by potential jumps of 10 mV (from −100 to +40 mV, 1.5 second per jump).
The data obtained were analyzed with the Pclamp software. The currents described in the appended FIG. 2B were obtained at 0 mV, the results expressed are the mean values±standard deviation. The IC50 value was obtained by plotting the experimental data with a sigmoidal function.
The activity of the channel is then measured by the patch-clamp technique in whole-cell configuration as described above.

[1] = test system: hippocampus progenitor cells; experiment: Hippocampal neurogenesis (BrdU-positive cells), 2 weeks of treatment; type: in vivo, mouse; conditions: 10 μM propeptide injected for 2 weeks
Procedure: Treatments with antidepressants are known to increase neurogenesis in the hippocampus (Santarelli, L., Saxe, M, Gross, C, Surget, A, Battaglia, F, Dulawa, S, Weisstaub, N, Lee, J, Duman, R, Arancio, O, Belzung, C, Hen, R et al. “Requirement of hippocampal neurogenesis for the behavioral effects of antidepressants” Science, 301: 805-809 (2003) (24). This cellular proliferation is measured from the increase of “progenitor” cells that incorporate a marker, 5-bromo-2-deoxyuridine (BrdU), and are transformed to mature neurons. The BrdU is detected by immunohistochemistry.
On day 1, the animals are injected IP with 300 μl of an aqueous solution of 10 mM of BrdU, then put back in the cage.
On day 2, the animals are euthanased and then the tissues are fixed by intracardiac perfusion of a cold solution of 4% paraformaldehyde. The brains are removed and then frozen at −20° C.
Series of 40 μm sections are prepared, so as to cover the entire hippocampal structure, using a vibratome (Leica). One section out of six is retained for measuring the incorporation of BrdU by means of a monoclonal mouse anti-BrdU antibody (Becton Dickinson). […] The peroxidase activity is visualized by hydrolysis of DAB. The cells labeled in this way are counted on each section. […]

C57BL6/J mice = experiment: Tail flick test of sensitivity to pain; type: in vivo, mouse; conditions: bath at 48° C.; 100 μl at 10^−6 M; 30 minutes after injection
Procedure: This test consists of immersing the tail of a mouse in a bath at 48° C. and measuring the time it takes to withdraw it from the bath. Before any injections, a habituation test was carried out on the mouse. It consists of immersing the tail of each animal twice in the bath so as to have homogeneous groups before any treatment (obtaining a reaction time less than 12 seconds). Then the mice were injected with 100 μl of physiological saline solution (“PHYS SALINE”) or 100 μl of peptide of sequence ID No. 2 at a concentration of 10^−6 M (“PE 10^−6M”).
The mice used were C57BL6/J mice. Each group was constituted of 10 mice.
The measurements were taken 30 minutes after injection.
The difference was evaluated using the Student t test.

APLPRWSGPIGVSWGLR [propeptide, APLPRWSGPIGVSWGLR]
current density at 0 mV (TREK-1 channel; 10 μM arachidonic acid plus 100 μM of propeptide (130 pA/pF without propeptide)): 56 pA/pF
inhibition at 100 µM (TREK-1 channel; COS-7, read-out: inhibition of channel activity measured at 0 mV): 25%
IC50 (TREK-1 channel; activated by 10 μM arachidonic acid, measured at 0 mV, read-out: half-effect concentration (IC50) of inhibition of TREK-1 channel activity): 70.7 nM
current density at 0 mV (TREK-1 channel; baseline conditions, 100 μM of propeptide (control 31 pA/pF)): 23 pA/pF
activation of TREK-1 by arachidonic acid (TREK-1 channel; electrophysiology, FIG. 2): blocked
neurogenesis (BrdU-labeled cells) [1]: considerable neurogenesis comparable to that induced by fluoxetine
time to withdraw tail from bath (C57BL6/J mice): 8.3 ± 0.7 s
